Results as given in patent publication US20250214996A1, “SALTS AND SOLID FORMS OF AN ESTROGEN RECEPTOR ANTAGONIST” (Olema Pharmaceuticals, Inc., priority 2022, published 2025).
Values after ≈ are worked out from the molar mass of the structure shown. Values joined by “and” are separate entries in the source; they are usually repeats but may differ in a detail not shown here. Equal entries are not always repeated. Where two headings read alike, the source gives them in different places. Marks after values point to notes of the source that are not given here.

Legend:
[1] = Pharmacokinetic study in Beagle dogs, oral capsule; assay type: in vivo; conditions: for AUClast/D / AUC∞/D: dose-normalised
Method: Compound 1 […] in two different forms was administered orally (PO) to male and female Beagle dogs. Blood was serially collected up to 144 hours post dose for determination of plasma pharmacokinetic analysis.
Animals were healthy at the start of the study and were between 1 and 6.5 years of age. Initial body weights were recorded at the start of the study and general health observations were recorded at each blood collection time point.
Each Group contained 3 male and 1 female dog. Capsules were administered by placing the capsule to the back of the throat, followed by a 10 mL flush with drinking water.
Plasma concentrations of Compound 1 were determined by LC-MS/MS. Pharmacokinetic parameters were determined using Phoenix WinNonlin (v8.0) non-compartmental analyses.

[2] = Kinetic solubility estimate, solvent aliquot addition, visual observation; assay type: physicochemical
Method: A polymorph screen was conducted using amorphous Compound 1. To help design the experiments, kinetic solubilities of the compound were estimated. The estimation was done using a solvent aliquot addition method, and dissolution was judged by visual observation. In Table 14, solvent ratios (v/v) are approximate; values are rounded to nearest whole number. If complete dissolution was achieved by one aliquot addition, solubilities were reported as “>”; if […], solubilities were reported as “<”. The actual solubility may be larger than the value calculated due to the use of solvent aliquots that were too large or due to a slow rate of dissolution.
A polymorph screen was conducted using Compound 1 Fumarate Form A Ethyl Acetate Solvate. The screen consisted primarily of long term slurry experiments. To help design screen experiments, kinetic solubilities of Fumarate Form A Ethyl Acetate Solvate were estimated. The estimation was done on a 3-11 mg scale using a solvent aliquot addition method, and dissolution was judged by visual observation. Solubilities are estimated at ambient temperature and reported to the nearest mg/mL; if complete dissolution was achieved by one aliquot addition, solubilites were reported as […]

[3] = Solubility by dynamic method; assay type: physicochemical; conditions: for solubility at 15 min: organic solvent or mixture, thermodynamic from solid; for solubility at 15 min / Solubility: Dynamic
Method: […] Solubility was measured by the dynamic method and gravimetric method.
Dynamic method: Under the condition of a certain amount of solute and certain temperature, solvent was gradually added with stirring for 15 min to reach equilibrium. When solute is completely dissolved, amount of solvent was recorded and the solubility calculated.

[4] = Stability in oven at 60° C. for two weeks; assay type: physicochemical; conditions: for HPLC Purity (%) Starting: before storage; for XRPD: form after oven at 60° C. for two weeks
Method: Amorphous Compound 1, Compound 1 Fumarate Form E, and Compound 1 Fumarate Form A Anhydrate were placed in an oven at 60° C. for two weeks to evaluate their stability.

[5] = Dynamic vapor sorption (DVS) hygroscopicity; assay type: physicochemical; conditions: for Form Change after DVS?: XRPD before and after DVS
Method: Dynamic Vapor Sorption (DVS) was measured by a SMS (Surface Measurement Systems) DVS Intrinsic. Parameters for DVS test are listed below:
Alternatively, DVS was performed using Intrinsic DVS ([…], UK). About 30-50 mg of sample was placed in a sample basked and hung in the measuring chamber. For an isotherm test, the chamber temperature is maintained by a water bath at a constant 25±1° C. The sample was tested at a targeted RH from 0 to 90% full cycle in step mode. The analysis was performed in 10% RH increments. Time duration at each RH was set as 60 min so that the sample could reach equilibrium with the chamber environment. Data were collected in 20 s increments.
A DVS isotherm plot was collected at 25° C. to investigate the solid form stability as a function of humidity. For Compound 1 Fumarate Form A Anhydrate, solids were pre-equilibrated at 0% RH to remove the unbounded solvent or water before the hygroscopicity experiment was started.

[6] = Solid form change on heating (XRPD); assay type: physicochemical
[7] = Solubility by gravimetric method; assay type: physicochemical; conditions: H2O, 25° C.
Method: Solubility studies of Compound 1 and Compound 1 Fumarate in different solvents at 25° C. were performed. Solubility was measured by the dynamic method and gravimetric method.
Gravimetric method: Excess solids and a certain amount of solvent were added 8 mL vials, stirred for 24 hours, and filtered.

[8] = Bulk density in graduated cylinder; assay type: physicochemical
Method: Bulk density of Compound 1 Fumarate Form E was measured by gently introducing a known sample mass into a graduated cylinder (50 mL), leveling the powder without compacting it, and recording the apparent untapped volume to the nearest graduated unit.

[9] = Competitive slurry of Fumarate Form E and Fumarate Form A Anhydrate (XRPD); assay type: physicochemical
Method: Competitive slurry experiments were performed with Compound 1 Fumarate Form E and Compound 1 Fumarate Form A Anhydrate, as follows:
Experiment #1: Compound 1 Fumarate Form E (100 mg), Compound 1 Fumarate Form A Anhydrate (100 mg), and isopropanol (2 mL) were added into two 8-mL vials and mixed well in a shaker at 25° C. and 40° C., respectively. Samples for analysis were taken at 24 h and 72 h.
Experiment #2: Compound 1 Fumarate Form E (100 mg), Compound 1 Fumarate Form A Anhydrate (100 mg), and water (2 mL) were added into two 8-mL vials and mixed well in a shaker at 25° C. and 40° C., respectively. Samples for analysis were taken at 24 h and 72 h.
Experiment #3: Compound 1 Fumarate Form E (100 mg), Compound 1 Fumarate Form A Anhydrate (100 mg), and ethyl acetate (2 mL) were added into two 8-mL vials and mixed well in a shaker at 25° C. and 40° C., respectively. Samples for analysis were taken at 24 h and 72 h.

[10] = dose 5.34 mg/kg (Group 1), 7.4 mg/kg (Group 2), plasma
[11] = both sexes, dog, dose 5.34 mg/kg (Group 1), 7.4 mg/kg (Group 2), plasma

In the case of `CCCN1CC(Oc2ccc([C@@H]3c4[nH]c5ccccc5c4C[C@@H](C)N3CC(C)(C)F)cc2)C1.O=C(O)/C=C/C(=O)O`, the “AUC∞” value ([1]; dose 5.34 mg/kg (Group 1), 7.4 mg/kg (Group 2)) is reported as 17271 ng·h/mL, the “MRTlast” value [1, 10] is reported as 39.8 h and the “t1/2” value [1, 10] is reported as 49.6 h. For the same compound, the “tmax” value [1, 10] was 3.5 h, the “AUClast/D” value [1] was 2001 kg·ng·h/mL/mg and the “AUC∞/D” value [1] was 2351 kg·ng·h/mL/mg. The “Solubility” value ([2]; ambient temperature, 2-BuOH) was 17 mg/mL, the “Solubility” value ([2]; ambient temperature, 2-McTHF) was 32 mg/mL and the “Solubility (mg/mL)” value ([2]; ambient temperature, ACN, re-precipitated after first aliquot) was <2* mg/mL. The “Solubility” value ([2]; ambient temperature, Anisole) was under 1 mg/mL, the “Solubility” value ([2]; ambient temperature, DCE) was under 9 mg/mL and the “Solubility (mg/mL)” value ([2]; ambient temperature, DCE/EtOH (96/4)) was “Dissolved at 8 mg/mL”. For the same compound, the “Solubility” value ([2]; ambient temperature, Dioxane) was over 104 mg/mL, the “Solubility” value ([2]; ambient temperature, IPA) was 20 mg/mL and the “Solubility” value ([2]; ambient temperature, IPA/water (50/50)) was over 124 mg/mL. For the same compound, the “Solubility” value ([2]; ambient temperature, MIBK) was 4 mg/mL, the “Solubility” value ([2]; ambient temperature, MTBE) was 2 mg/mL and the “Solubility” value ([2]; ambient temperature, TFE) was over 100 mg/mL. The “Solubility (mg/mL)” value ([2]; ambient temperature, t-BuOAc, re-precipitated after first aliquot) was 1* mg/mL.
In the case of `CCCN1CC(Oc2ccc([C@@H]3c4[nH]c5ccccc5c4C[C@@H](C)N3CC(C)(C)F)cc2)C1` [Amorphous Compound 1], the “solubility in isopropanol” value ([3]; 25° C.) is reported as “high solubility”, the solubility at 15 min ([3]; IPA, 25° C.) is reported as over 468 mg/mL and the Cmax [1, 11] is reported as 343 ng/mL. The MRT last [1, 11] was 37.8 h, the half-life [1, 11] was 56.4 h and the tmax ([1]; both sexes, dog, dose 5.34 mg/kg (Group 1), 7.4 mg/kg (Group 2), plasma, read-out: tmax) was 3.25 h. For the same compound, the AUC(0-inf) ([1]; both sexes, dog, plasma, dose 5.34 mg/kg (Group 1), 7.4 mg/kg (Group 2)) was 8960 ng·h/mL, the AUC(0-t) ([1]; both sexes, dog, plasma, dose 5.34 mg/kg (Group 1), 7.4 mg/kg (Group 2), up to 144 hours) was 7460 ng·h/mL and the “AUClast/D” value [1] was 1297 kg·ng·h/mL/mg. The “AUC∞/D” value [1] was 1527 kg·ng·h/mL/mg, the “HPLC Purity (%) Starting” value [4] was 99.23% and the XRPD [4] was “No change”. The “HPLC Purity (%) 60° C.” value ([4]; oven at 60° C. for two weeks) was 98.94%, the “HPLC Purity (%) Degradation” value ([4]; oven at 60° C. for two weeks) was −0.29% and the “Form Change after DVS?” value ([5]; listed as Amorphous Freebase) was “No”. The “Hygroscopicity (%)* (class)” value ([5]; based on water uptake at 25° C./80% RH) was “Slightly”, the “Hygroscopicity (%)* (water uptake)” value ([5]; water uptake at 25° C./80% RH) was “(0.463) %” and the Solubility ([2]; aqueous with cosolvent or surfactant or cyclodextrin, thermodynamic from solid, amorphous Compound 1, 2-MeTHF/MeOH/water (60/20/20), read-out: Solubility) was 106 mg/mL (≈ 236 mM). For the same compound, the Solubility ([2]; aqueous with cosolvent or surfactant or cyclodextrin, thermodynamic from solid, amorphous Compound 1, ACN/water (60/40), read-out: Solubility) was under 6 mg/mL, the Solubility ([2]; aqueous with cosolvent or surfactant or cyclodextrin, thermodynamic from solid, amorphous Compound 1, Dioxane/water (60/40), read-out: Solubility) was under 13 mg/mL and the Solubility ([2]; aqueous with cosolvent or surfactant or cyclodextrin, thermodynamic from solid, amorphous Compound 1, MeOH/water (40/60), appeared hydrophobic, read-out: Solubility) was under 55 mg/mL. The Solubility ([2]; aqueous with cosolvent or surfactant or cyclodextrin, thermodynamic from solid, amorphous Compound 1, NMP/water (68/32), read-out: Solubility) was 7 mg/mL (≈ 15.6 mM), the Solubility ([2]; organic solvent or mixture, thermodynamic from solid, amorphous Compound 1, Heptane, read-out: Solubility) was over 191 mg/mL and the Solubility ([2]; organic solvent or mixture, thermodynamic from solid, amorphous Compound 1, IPA, read-out: Solubility) was 82 mg/mL (≈ 182 mM).
For `CCCN1CC(Oc2ccc([C@@H]3c4[nH]c5ccccc5c4C[C@@H](C)N3CC(C)(C)F)cc2)C1` [Compound 1 Form A Acetonitrile Solvate], the “form after heating (XRPD)” value ([6]; heating to 70° C. and 80° C.) was “became amorphous”, the “hygroscopicity by DVS” value ([5]; DVS) was “slightly hygroscopic” and the “water uptake (DVS)” value ([5]; DVS, FIG. 4) was 1.9%. The “Form Change after DVS?” value [5] was “same crystalline pattern after DVS”.
With `CCCN1CC(Oc2ccc([C@@H]3c4[nH]c5ccccc5c4C[C@@H](C)N3CC(C)(C)F)cc2)C1` [Compound 1 Form B] the “form after heating (XRPD)” value ([6]; heating to 100° C.) was “became amorphous”.
With `CCCN1CC(Oc2ccc([C@@H]3c4[nH]c5ccccc5c4C[C@@H](C)N3CC(C)(C)F)cc2)C1.O=C(O)/C=C/C(=O)O` [Compound 1 Fumarate Form E] the “Solubility” value ([3]; IPA/heptane (1/1), 25° C.) was about 2.35 mg/mL, the “Solubility” value ([3]; IPA/heptane (1/3), 25° C.) was under 1 mg/mL and the “Solubility” value ([3]; IPA/heptane (5/1), 25° C.) was 5.89 mg/mL. For the same compound, the “Solubility” value ([3]; IPA/heptane (5/3), 25° C.) was about 3.57 mg/mL, the “Solubility” value ([3]; IPA, 0° C.) was under 1 mg/mL and the “Solubility” value ([3]; IPA, 25° C.) was about 8.46 mg/mL. For the same compound, the “solubility in isopropanol” value ([3]; 25° C.) was “very low solubility”, the “Solubility” value [7] was 1.0 mg/mL and the “Bulk Density (g/mL), Average” value ([8]; average of three runs) was 0.1239 g/mL. The “Bulk Density” value ([8]; untapped, runs 1-3) was 0.1288 g/mL and 0.1233 g/mL and 0.1196 g/mL, the “HPLC Purity (%) Starting” value [4] was 99.54% and the XRPD [4] was “No change”. For the same compound, the “HPLC Purity (%) 60° C.” value ([4]; oven at 60° C. for two weeks) was 99.50%, the “HPLC Purity (%) Degradation” value ([4]; oven at 60° C. for two weeks) was −0.05% and the “stability relative to Amorphous Compound 1” value ([4]; oven at 60° C. for two weeks) was “improved stability”. For the same compound, the “hygroscopicity by DVS” value ([5]; DVS) was “not hygroscopic”, the “competitive slurry outcome (XRPD)” value ([9]; ethyl acetate, 72 h at 25° C. or 40° C.) was “a mixture of Compound 1 Fumarate Form E and Compound 1 Fumarate Form A Anhydrate remained” and the “competitive slurry outcome (XRPD)” value ([9]; isopropanol, 24 h at 25° C. or 40° C.) was “more stable than Form A in isopropanol”. The “competitive slurry outcome (XRPD)” value ([9]; water, 72 h at 25° C. or 40° C.) was “a mixture of Compound 1 Fumarate Form E and Compound 1 Fumarate Form A Anhydrate remained”.
In the case of `O=C(O)/C=C/C(=O)O` [Fumaric acid], the “solubility in isopropanol” value ([3]; 25° C.) is reported as “relatively low solubility” and the solubility at 15 min ([3]; IPA, 25° C.) is reported as 34.3 mg/mL (≈ 296 mM).
